Drawing on patent US9617286B2, “Fungicide N-[(trisubstitutedsilyl)methyl]-carboxamide derivatives” (BAYER INTELLECTUAL PROPERTY GMBH, priority 2011, dated 2017), this text covers logP for 55 molecules.

A short description of the data set: log P by HPLC on reversed-phase column (C 18), EEC Directive 79/831 Annex V.A8. The conditions noted are these: 40° C., 0.1% aqueous formic acid and acetonitrile, linear gradient 10% to 90% acetonitrile. Type of data set: physicochemical. Here is the method: In table 1, the log P values were determined in accordance with EEC Directive 79/831 Annex V.A8 by HPLC (High Performance Liquid Chromatography) on a reversed-phase column (C 18), using the method described below:
Temperature: 40° C.; Mobile phases: 0.1% aqueous formic acid and acetonitrile; linear gradient from 10% acetonitrile to 90% acetonitrile.
Calibration was carried out using unbranched alkan-2-ones (comprising 3 to 16 carbon atoms) with known log P values (determination of the log P values by the retention times using linear interpolation between two successive alkanones). lambda-max-values were determined using UV-spectra from 200 nm to 400 nm and the peak values of the chromatographic signals.
`C[Si](C)(CN(C(=O)c1cccnc1Cl)C1CC1)c1ccccc1` [Example 4] had a logP of 3.50.
`CC1=C(C(=O)NC[Si](C)(C)c2ccccc2)SCCO1` [Example 6]: the lipophilicity (logP) is listed as 3.13.
Consider `CCc1ccccc1[Si](C)(C)CN(C(=O)c1cccnc1Cl)C1CC1` [Example 18], for which the lipophilicity (logP) was 4.16.
`CCc1ccccc1[Si](C)(C)CN(C(=O)c1cccnc1C(F)F)C1CC1` [Example 19] had a log partition coefficient (logP) of 4.06.
As for `C[Si](C)(CN(C(=O)c1cccnc1Cl)C1CC1)c1ccccc1Cl` [Example 23], the figure is 3.94.
Turning to `C[Si](C)(CN(C(=O)c1ccccc1I)C1CC1)c1ccccc1Cl` [Example 24], the logP is 5.14.
Take `C[Si](C)(CN(C(=O)c1ccccc1C(F)(F)F)C1CC1)c1ccccc1Cl` [Example 25]: the lipophilicity (logP) came out at 5.03. The logP values of the last two molecules are within 0.2 log units of each other.
With `C[Si](C)(CN(C(=O)c1cccnc1C(F)(F)F)C1CC1)c1ccccc1Cl` [Example 27] the figure was 4.31; with `C[Si](C)(CN(C(=O)c1ccccc1I)C1CC1)c1cccc(Cl)c1` [Example 30], 5.14.
Consider `C[Si](C)(CN(C(=O)c1ccccc1C(F)(F)F)C1CC1)c1cccc(Cl)c1` [Example 31], for which the logP is recorded as 5.03.
With `C[Si](C)(CN(C(=O)c1cccnc1Cl)C1CC1)c1cccc(Cl)c1` [Example 35] the figure was 3.96; with `CC[Si](C)(CN(C(=O)c1cccnc1C(F)(F)F)C1CC1)c1ccccc1Cl` (stereo not shown) [Example 37], 4.71.
`CC1=C(C(=O)N(C[Si](C)(C)c2ccccc2Cl)C2CC2)SCCO1` [Example 43]: the lipophilicity (logP) turned out to be 4.29.
As for `C[Si](C)(CN(C(=O)c1cccnc1Cl)C1CC1)c1ccccc1C(F)(F)F` [Example 53], the logP is 4.04.
Take `C[Si](C)(CNC(=O)c1cccnc1C(F)F)c1ccc(Cl)cc1Cl` [Example 57]: the logP is recorded as 3.64.
For `C[Si](C)(CN(C(=O)c1cccnc1Cl)C1CC1)c1ccc(Cl)cc1Cl` [Example 59], the logP is recorded as 4.64.
`C[Si](C)(CN(C(=O)c1ccccc1I)C1CC1)c1ccc(Cl)cc1Cl` [Example 60] yielded a logP of 5.88.
For `C[Si](C)(CN(C(=O)c1ccccc1C(F)(F)F)C1CC1)c1ccc(Cl)cc1Cl` [Example 61], the logP is reported as 5.72.
As for `C[Si](C)(CN(C(=O)c1nccnc1C(F)(F)F)C1CC1)c1cc(Cl)cc(Cl)c1` [Example 64], the figure is 4.95; as for `C[Si](C)(CN(C(=O)c1cccnc1Cl)C1CC1)c1cc(Cl)cc(Cl)c1` [Example 65], 4.61; as for `C[Si](C)(CN(C(=O)c1ccccc1C(F)(F)F)C1CC1)c1cc(Cl)cc(Cl)c1` [Example 66], 5.65.
The molecule `C[Si](C)(CN(C(=O)c1cccnc1C(F)(F)F)C1CC1)c1cc(Cl)cc(Cl)c1` [Example 67] yielded a log partition coefficient (logP) of 4.95.
Molecule `C[Si](C)(CN(C(=O)c1cccnc1Cl)C1CC1)c1cccc2ccccc12` [Example 69] registered a logP of 4.15.
Turning to `C[Si](C)(CN(C(=O)c1ccccc1I)C1CC1)c1cccc2ccccc12` [Example 70], the lipophilicity (logP) is on record as 5.31.
`C[Si](C)(CN(C(=O)c1ccccc1C(F)(F)F)C1CC1)c1cccc2ccccc12` [Example 71] had a lipophilicity (logP) of 5.19. This logP and that of the molecule before are within 0.2 log units of each other.
As for `C[Si](C)(CN(C(=O)c1cccnc1C(F)(F)F)C1CC1)c1cccc2ccccc12` [Example 73], the logP came to 4.51.
In turn, `C[Si](C)(CN(C(=O)c1cccnc1Cl)C1CC1)c1ccc2ccccc2c1` [Example 75] displayed a log partition coefficient (logP) of 4.23.
`C[Si](C)(CN(C(=O)c1ccccc1I)C1CC1)c1ccc2ccccc2c1` [Example 76]: the log partition coefficient (logP) came out at 5.36.
As for `C[Si](C)(CN(C(=O)c1ccccc1C(F)(F)F)C1CC1)c1ccc2ccccc2c1` [Example 80], the logP amounted to 5.25.
Turning to `C[Si](C)(CN(C(=O)c1cccnc1C(F)(F)F)C1CC1)c1cccs1` [Example 81], the logP is 3.80.
As for `C[Si](C)(CN(C(=O)c1cccnc1Cl)C1CC1)c1cccs1` [Example 83], the figure is 3.39; as for `C[Si](C)(CN(C(=O)c1ccccc1I)C1CC1)c1cccs1` [Example 84], 4.59; as for `C[Si](C)(CN(C(=O)c1ccccc1C(F)(F)F)C1CC1)c1cccs1` [Example 85], 4.51.
The molecule `C[Si](C)(CN(C(=O)c1cccnc1Cl)C1CC1)c1ccsc1` [Example 88] returned a log partition coefficient (logP) of 3.33.
On to `C[Si](C)(CN(C(=O)c1ccccc1I)C1CC1)c1ccsc1` [Example 89], for which the logP is listed as 4.49.
With `C[Si](C)(CN(C(=O)c1ccccc1C(F)(F)F)C1CC1)c1ccsc1` [Example 90] the figure was 4.44.
Molecule `C[Si](C)(Cc1ccccc1)CN(C(=O)c1cccnc1Cl)C1CC1` [Example 94] showed a logP of 3.87.
For the molecule `C[Si](C)(Cc1ccccc1)CN(C(=O)c1ccccc1I)C1CC1` [Example 95], the log partition coefficient (logP) came to 5.00.
On to `C[Si](C)(Cc1ccccc1)CN(C(=O)c1ccccc1C(F)(F)F)C1CC1` [Example 96], for which the logP came out at 4.90. The logP values of the last two molecules are within 0.2 log units of each other.
Turning to `C[Si](C)(Cc1ccccc1)CN(C(=O)c1cccnc1C(F)(F)F)C1CC1` [Example 97], the logP is recorded as 4.19.
With `C[Si](C)(Cc1ccccc1Cl)CN(C(=O)c1cccnc1C(F)F)C1CC1` [Example 98] the figure was 4.11; with `C[Si](C)(Cc1ccccc1Cl)CN(C(=O)c1cccnc1Cl)C1CC1` [Example 100], 4.25; with `C[Si](C)(Cc1ccccc1Cl)CN(C(=O)c1ccccc1I)C1CC1` [Example 101], 5.45.
As for `C[Si](C)(Cc1ccccc1Cl)CN(C(=O)c1ccccc1C(F)(F)F)C1CC1` [Example 102], the figure is 5.31; as for `C[Si](C)(Cc1ccccc1Cl)CN(C(=O)c1cccnc1C(F)(F)F)C1CC1` [Example 103], 4.59; as for `C[Si](C)(Cc1cccc(Cl)c1)CN(C(=O)c1cccnc1Cl)C1CC1` [Example 106], 4.30.
With `C[Si](C)(Cc1cccc(Cl)c1)CN(C(=O)c1ccccc1I)C1CC1` [Example 107] the figure was 5.45.
`C[Si](C)(Cc1cccc(Cl)c1)CN(C(=O)c1ccccc1C(F)(F)F)C1CC1` [Example 108] came in with a log partition coefficient (logP) of 5.31.
The molecule `C[Si](C)(Cc1cccc(Cl)c1)CN(C(=O)c1cccnc1C(F)(F)F)C1CC1` [Example 109] had a logP of 4.61.
Consider `C[Si](C)(Cc1ccc(Cl)cc1Cl)CN(C(=O)c1cccnc1Cl)C1CC1` [Example 112], for which the lipophilicity (logP) is reported as 4.90.
For the molecule `C[Si](C)(Cc1ccc(Cl)cc1Cl)CN(C(=O)c1ccccc1I)C1CC1` [Example 113], the logP was 6.14.
Regarding `C[Si](C)(Cc1ccc(Cl)cc1Cl)CN(C(=O)c1ccccc1C(F)(F)F)C1CC1` [Example 114], the lipophilicity (logP) came out at 5.94.
As for `C[Si](C)(Cc1ccc(Cl)cc1Cl)CN(C(=O)c1cccnc1C(F)(F)F)C1CC1` [Example 115], the figure is 5.22.
As for `C[Si](C)(Cc1cc(Cl)cc(Cl)c1)CN(C(=O)c1nccnc1C(F)(F)F)C1CC1` [Example 116], the figure is 5.45; as for `C[Si](C)(Cc1cc(Cl)cc(Cl)c1)CN(C(=O)c1cccnc1Cl)C1CC1` [Example 118], 4.92.
